Laboratory results: EP0932387B1 (UNILEVER PLC, priority 1996, dated 1998)
Where two headings read alike, the source gives them in different places.

Key:
[1] = biological target: T1, lecithin retinol acyl transferase (LRAT) (Bos taurus, UniProt Q9BGL2); assay: In vitro Microsomal Assay, LRAT catalyzed retinol esterification (retinyl laurate formation); assay type: biochemical, bovine
T1 construct: a microsomal fraction isolated from bovine retinal pigment epithelial cells; from tissue; host or cells: bovine retinal pigment epithelium, microsomal fraction
T1 sequence (Q9BGL2 1-230): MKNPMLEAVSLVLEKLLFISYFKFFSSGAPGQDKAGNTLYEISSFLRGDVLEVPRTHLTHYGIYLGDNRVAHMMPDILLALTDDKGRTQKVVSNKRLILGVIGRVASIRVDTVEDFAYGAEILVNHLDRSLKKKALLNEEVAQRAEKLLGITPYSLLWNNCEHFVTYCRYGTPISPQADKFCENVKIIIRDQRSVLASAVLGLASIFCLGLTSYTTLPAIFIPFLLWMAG
Protocol: (§2) A solution containing 0.1M sodium phosphate pH 7 buffer, 5mM dithiothreitol, 2 mg/ml bovine serum albumin, 40 micromolar palmitoyl CoA, 40 micromolar dilauroyl phosphatidyl choline, 10 micromolar retinol and a test compound or a solvent blank, is incubated for 1 hour at 37°C with a microsomal fraction isolated from bovine retinal pigment epithelial cells. After incubation, the reaction is quenched by addition of an equal volume of ethanol, and the retinyl esters formed (retinyl laurate from the LRAT catalyzed reaction and retinyl palmitate from ARAT catalyzed reaction) are extracted with hexane.
(§3) A solution containing 0.1M sodium phosphate pH 7 buffer, 5mM dithiothreitol, 2 mg/ml bovine serum albumin, 40 micromolar palmitoyl CoA, 40 micromolar dilauroyl phosphatidyl choline, 10 micromolar retinol and a test compound or solvent blank, was incubated for 1 hour at 37°C with a microsomal fraction isolated from bovine retinal pigment epithelial cells. After incubation, the reaction was quenched by addition of an equal volume of ethanol, and the retinyl esters formed (retinyl palmitate from the ARAT catalyzed reaction, and retinyl laurate from the LRAT catalyzed reaction) were extracted with hexane.

Human keratinocytes [2] = assay: Transglutaminase Assay (TGase I ELISA, procedure for other Examples), normalized to DNA; keratinocyte differentiation; assay type: cell-based; settings: for TGase/ DNA (% control) / mean TGase/ DNA x10^5 ± s.d: 72 hour treatment; for mean TGase/ DNA x10^5 ± s.d: n = 3; for % Control: transglutaminase normalized to DNA; for activity at 1 µM: 1 micromolar, read-out: % of Control
Protocol: (§1) Human keratinocytes, isolated from neonatal foreskin by trypsin treatment were grown in Dulbecco Modification Eagle (DME) Hams F12 (1:1) medium/10% fetal calf serum in the presence of irradiated 3T3 mouse fibroblasts for establishing dividing keratinocyte colonies. Cells were grown under the above condition until their second passage and kept frozen for future use. Frozen second passage keratinocytes were thawed and plated into the above medium and grown for five days before they were switched to a serum-free MCDB 153-based medium keratinocyte growth medium (KGM) from Clonetics Corporation, San Diego, CA, containing 0.15 mM Ca, or keratinocyte serum-free media (KSFM) from GIBCO containing 0.09 mM Ca). On day 7, when the cells were 80-90% confluent, they were trypsinized and plated in the serum-free medium for the various experiments.
During the process of terminal differentiation in the epidermis, a 15nm thick layer of protein, known as the cornified envelope (CE) is formed on the inner surface of the cell periphery. The CE is composed of numerous distinct proteins which have been cross-linked together by the formation of N^ε-(γ-glutamyl) lysine isodipeptide bonds catalyzed by the action of at least two different transglutaminases (TGases) expressed in the epidermis. Transglutaminase I (TGase I) is expressed in abundance in the differentiated layers of the epidermis, especially the granular layer, but is absent in the undifferentiated basal epidermis. Thus TGase I is a useful marker of epidermal keratinocyte differentiation with high TGase I levels indicating a more differentiated state. An ELISA based TGase I assay, using a TGase I antibody, was used to assess the state of differentiation of the cultured keratinocytes in the examples that follow.
Keratinocytes (cultured as described above) were plated in 96 well plates at a density of 3,000 cells per well in 200µl of cell culture media. After incubation for four days, the media was changed to media containing test compounds (six replicates per test). The cells were cultured for a further 72 hours after which time the media was aspirated and the plates stored at -70°C. After the plates were removed from the freezer, the cells were further freezed fractured by freezing and thawing and then washed 3x with PBS. The cells were incubated for one hour at room temperature (R/T) with TBS/5% BSA buffer. Cells were then incubated with 100µl of monoclonal anti-human transglutaminase (IgG) mouse antibody (primary antibody) obtained from Biomedical Technologies Inc. diluted 1:2000 in TBS/1% BSA buffer for two hours at 37°C, and then rinsed six times with wash buffer (TBS/1% BSA/0.05% Tween-20). Cells were next incubated with 100µl of Fab fragment, peroxidase conjugated anti-mouse IgG antibody (secondary antibody) from Amersham diluted 1:4,000 in wash buffer for two hours at 37°C and then rinsed three times with wash buffer and three times with PBS. Cells were incubated with substrate solution (4mg o-phenylene diamine and 3.3µl 30% H2O2 in 10mL 0.1M citrate buffer, pH 5.0) for five minutes at R/T and in darkness (under aluminum foil). The reaction was stopped by the addition of 50µl 4N H2SO4. The absorbance of samples was read at 492nm in the plate reader. Out of the six replicates, four were treated with both antibodies, two were treated only with the secondary antibody (i.e., to determine the background binding of the enzyme conjugated antibody). Transglutaminase I levels were determined by subtracted background from the readings from each treatment and determining the mean ± s.d. for the replicates exposed to both antibodies.
The level of TGase I detected after treatment of the cells could be influenced by cell number, i.e., the greater the number of cells the greater the level of TGase-1 detected. The level of Tgase I was normalized to DNA content of the cells in the same well thus eliminating variation due to differences in cell number. […]

[3] = system: acyl CoA retinol transferase (ARAT); assay: In vitro Microsomal Assay, ARAT catalyzed retinol esterification (retinyl palmitate formation); assay type: biochemical, bovine
Protocol: as §2, §3

Human keratinocytes [4] = assay: 3H-Thymidine incorporation, keratinocyte proliferation; assay type: cell-based; settings: 250 nM
Protocol: as §1
The incorporation of ^3H-thymidine by cultured keratinocytes was used as an assay of keratinocyte proliferation. Thymidine is one of four deoxynucleosides which are the monomeric units of DNA, the universal library of genetic information in the animal kingdom. Prior to cell division of a somatic cell such as a keratinocyte, the complete genome of the cell undergoing cell division is replicated. This involves large scale DNA synthesis by the cell and enables both daughter cells to receive identical copies of the genetic material. When ^3H-thymidine is included in the culture media of keratinocytes which are synthesizing DNA in preparation for cell division then the labelled nucleoside is incorporated into the newly synthesized DNA. The extent of incorporation of ^3H-thymidine into a population of cells is proportional to the rate of DNA synthesis by this population of cells and therefore an indication of their cellular proliferation.
Keratinocytes (that were cultured as described above) were plated in 24 well plates at a density of 20,000 cells per well in 1 ml media. After incubation for four days or until the cells were 60-70% confluent, the media was changed. Test compounds were added (in triplicate) to the wells 24 hours after the media change, and four hours later 1µCi ^3H-Thymidine in 50 µl media was added per well. Cells were incubated for a further 24 hours. Media was removed from the cells, 10% ice cold trichloroacetic acid (TCA) added and plates were incubated on ice for 30 minutes. Cells were washed five times with 5% TCA and allowed to dissolve in 500 µl 0.1M NaOH for at least one hour (usually overnight). The preparations were neutralized with 0.1M HCl; 50 µl of the cell preparation was used to determine total protein content. Disintegrations per minute (DPM) from ^3H labelling of DNA was determined by liquid scintillation counting of 900µl of the cell preparation. Thymidine incorporation results were expressed as DPM/µg protein.

Human keratinocytes [5] = assay: Transglutaminase Assay (TGase I ELISA, Example 1 procedure), normalized to DNA; keratinocyte differentiation; assay type: cell-based; settings: 2.5 x 10^-7M, 2.5 x 10^-8M and 2.5x10^-9M, vs ethanol control
Protocol: as §1, with “experiments. […]” for “experiments.”
Keratinocytes (cultured as described above) were plated in 96 well plates at a density of 3,000 cells per well in 200 µl media. […] The absorbance of samples was read at 492nm in the plate reader. […] TGase levels were determined by subtracting background from the readings from each treatment and determining mean ± s.d. for the replicates exposed to both antibodies.
The level of TGase I detected after treatment of the cells could be influenced by cell number, i.e., the greater the number of cells the greater the level of TGase-1 detected. […]

[6] = Table 10, 100 µM, read-out: % INHIBITION, LRAT
[7] = Table 5A, 100µM, read-out: % INHIBITION, LRAT
[8] = Table 2, 100 µM, read-out: % INHIB. LRAT

CCCCCCCCCCCC1=NCCN1CCO [Lauryl, lauryl hydroxyethyl imidazoline]
inhibition at 10 µM ([1]; Table 3, 10 micromolar, read-out: % INHIB. LRAT): 0%
inhibition at 100 µM ([1]; Table 3, 100 micromolar, read-out: % INHIB. LRAT): 47%

O=C1C[C@@H](c2ccc(O)cc2)Oc2cc(O)cc(O)c21 [Naringenin, naringenin]
TGase/ DNA (% control) (Human keratinocytes [2]; Table 11, 10^-7M): 94%
mean TGase/ DNA x10^5 ± s.d (Human keratinocytes [2]; Table 11, 10^-7M): 49.84 ± 2.76
TGase/ DNA (% control) (Human keratinocytes [2]; Table 12, 10^-8M): 89%
mean TGase/ DNA x10^5 ± s.d (Human keratinocytes [2]; Table 12, 10^-8M): 45.01 ± 1.90
inhibition at 100 µM [1, 6]: 14%
% INHIBITION, ARAT ([3]; Table 10, 100 µM): 33%

O=c1c(O)c(-c2ccc(O)c(O)c2)oc2cc(O)cc(O)c12 [Quercetin, quercetin]
inhibition at 100 µM [1, 6]: 14%
% INHIBITION, ARAT ([3]; Table 10, 100 µM): 25%

C/C=C/C(=O)C1C(C)=CCCC1(C)C (stereo not drawn) [alpha damascone]
% Control (Human keratinocytes [2]; Table 7, experiment 1, 1 mM): 92%
% Control (Human keratinocytes [2]; Table 7, experiment 2, 1 mM): 86%
% INHIBITION, ARAT ([3]; Table 5A, 100µM): 83%
% INHIBITION, ARAT ([3]; Table 5B, 10µM): 67%

CCC(=O)/C=C/C1C(C)=CCCC1(C)C (stereo not drawn) [alpha methyl ionone]
inhibition at 100 µM [1, 7]: 77%

CCOC(=O)C1=C(C)C=CCC1(C)C [ethyl saffranate]
inhibition at 100 µM [1, 7]: 49%

C/C=C/C(=O)C1CCC(C)(C)C=C1C (stereo not drawn) [isodamascone]
inhibition at 100 µM [1, 7]: 92%
% INHIBITION, ARAT ([3]; Table 5A, 100µM): 80%

CCCCCCCCCCCC(=O)N(C)CC(=O)O [lauroyl sarcosine]
inhibition at 100 µM [1, 8]: 0%
% INHIB. ARAT ([3]; Table 2, 100 µM): 20%

CCCCCCCCC=CCCCCCCCC(=O)NCCC[N+](C)(C)CC(=O)[O-] [oleamidopropyl betaine]
inhibition at 100 µM [1, 8]: 0%

CCCCCCCCC=CCCCCCCCC[N+](C)(C)[O-] [oleamine oxide]
inhibition at 100 µM [1, 8]: 0%

CCCCCCCC/C=C\CCCCCCCC1=NCCN1CCO [oleyl hydroxyethyl imidazoline]
activity at 1 µM (Human keratinocytes [2]; Homo sapiens, Keratinocyte, Table 4, Exp 1): 80.7%
activity at 1 µM (Human keratinocytes [2]; Homo sapiens, Keratinocyte, Table 4, Exp 2): 78.2%
activity at 1 µM (Human keratinocytes [2]; Homo sapiens, Keratinocyte, Table 4, Exp 3): 91.1%

CC1=C(/C=C/C(C)=C/C=C/C(C)=C/C(=O)O)C(C)(C)CCC1 [retinoic acid]
TGase/ DNA (% control) (Human keratinocytes [2]; Table 11, 2.5x10^-7M): 42%
mean TGase/ DNA x10^5 ± s.d (Human keratinocytes [2]; Table 11, 2.5x10^-7M): 22.47 ± 2.31
TGase/ DNA (% control) (Human keratinocytes [2]; Table 12, 2.5x10^-7M): 32%
mean TGase/ DNA x10^5 ± s.d (Human keratinocytes [2]; Table 12, 2.5x10^-7M): 16.31 ± 2.58
TGase/ DNA (% control) (Human keratinocytes [2]; Table 13, 2.5x10^-7M): 52%
% Control (Human keratinocytes [4]; Table 9A, Experiment #1): 156%
DPM/Microgram Protein mean (Human keratinocytes [4]; Table 9A, Experiment #1): 3013 DPM/Microgram Protein
% Control (Human keratinocytes [4]; Table 9B, Experiment #2): 163%
DPM/Microgram Protein mean (Human keratinocytes [4]; Table 9B, Experiment #2): 1494 DPM/Microgram Protein

CC1=C(/C=C/C(C)=C/C=C/C(C)=C/CO)C(C)(C)CCC1 [retinol]
% Control (Human keratinocytes [2]; Table 7, experiment 1, 0.001 mM): 67%
TGase/ DNA (% control) (Human keratinocytes [2]; Table 11, 2.5x10^-9M): 91%
TGase/ DNA (% control) (Human keratinocytes [2]; Table 11, 2.5x10^-9M, listed as Retinol): 92%
mean TGase/ DNA x10^5 ± s.d (Human keratinocytes [2]; Table 11, 2.5x10^-9M): 48.31 ± 5.31
TGase/ DNA (% control) (Human keratinocytes [2]; Table 13, 2.5x10^-7M): 90%
% Control (Human keratinocytes [4]; Table 9A, Experiment #1): 108%
DPM/Microgram Protein mean (Human keratinocytes [4]; Table 9A, Experiment #1): 2082 DPM/Microgram Protein
% Control (Human keratinocytes [4]; Table 9B, Experiment #2): 107%
DPM/Microgram Protein mean (Human keratinocytes [4]; Table 9B, Experiment #2): 974 DPM/Microgram Protein
Transglutaminase levels normalized to DNA content of the cells (Human keratinocytes [5]): decrease in transglutaminase level was dose dependent

CCCCCCCCCCCCCCCC(=O)OC/C=C(C)/C=C/C=C(C)/C=C/C1=C(C)CCCC1(C)C [retinyl palmitate]
activity at […] (Human keratinocytes [2]; Homo sapiens, Keratinocyte, Example 12, 2.5x10^-9M, read-out: keratinocyte TGase I level (% of control)): 93%
TGase/ DNA (% control) (Human keratinocytes [2]; Table 12, 2.5x10^-8M): 93%
mean TGase/ DNA x10^5 ± s.d (Human keratinocytes [2]; Table 12, 2.5x10^-8M): 47.32 ± 4.22

CC(=O)c1cc2c(cc1C)C(C)(C)C(C)C2C(C)C (stereo not drawn) [traseolide]
% INHIBITION, ARAT ([3]; Table 5A, 100µM): 41%
